Assay [1] concerns CT5.3-hTERT colon cancer-associated fibroblasts. In words: TGF-β-mediated growth inhibition in CT5.3-hTERT cells after cryopreservation (SRB assay, cell counter). The format is cell-based. The conditions noted are these: control group (routine culture, not cryopreserved); TGF-β 1 ng/ml for 1 week; n=3. Here is the method: Immortalized CT5.3-hTERT colon cancer-associated fibroblasts have been used to evaluate cellular function following cryopreservation with two different cryopreservation media: • 1) a 10:90 (% V/V) mixture of dimethylsulfoxide (DMSO) and fetal bovine serum (FBS), as known in the art; and • 2) a propylene glycol-based DMSO-free cryopreservation medium as described in Table 1 (hereafter referred to as “PCM”).
Briefly, early passage cells were cultured in routine culture medium (Dulbecco's Modified Eagle Medium (DMEM) containing 10% FBS, antibiotics and an antifungal product) at 37° C. in a humidified atmosphere with 5% CO2. Semi-confluent cells were harvested by trypsinization and cell concentration was assessed using the trypan blue exclusion method. […]
The cells of each group were treated with recombinant TGF-β (1 ng/ml) for 1 week. At the end of the experiment, cell concentration was measured using the sulforhodamine B (SRB) assay and an automated cell counter (trypan blue exclusion), respectively. […] Protein content was assessed by the bicinchoninic acid (BCA) test and concentrations were normalized, thus allowing for equal protein load for Western blot analysis. Expression of α-SMA was evaluated using a monoclonal HRP-coupled antibody, directed against this myofibroblast marker. […]

In assay [2] the test system is (MSC)-hTERT mesenchymal stem cells. In words: Cryopreservation tests on (MSC)-hTERT mesenchymal stem cells with TGF-β treatment. Format: cell-based. The source says:
It is noted that further cryopreservation tests on (MSC)-hTERT mesenchymal stem cells using the above-mentioned DMSO/FBS and PCM also show similar results for both cryopreservation media.

Results on one substance are retold here after patent US9938495B2, “Composition comprising cryopreservation medium and stem cells obtained by slow-freezing” (FERTIPRO N.V., priority 2013, dated 2018).

With TGF-β, the “inhibition of cell proliferation by TGF-β” value in assay [1] is listed as 79.84+/−4.43. In assay [2], the “effect of TGF-β on α-SMA expression” value is on record as “not to alter α-SMA expression”.
